Experimental data as given in patent US20250154115A1, “ARYLBENZOISOXAZOLE COMPOUNDS AS IP6K AND IPMK INHIBITORS AND METHODS OF USE THEREOF” (THE UNIVERSITY OF NORTH CAROLINA AT CHAPEL HILL, priority 2022, published 2025).

Experiments:
Type in all cases: biochemical
IP6K1 = IP6K1 (Homo sapiens (Human), UniProt Q92551); test: Enzyme-coupled assay of IP6K1 activity (Dipp1-coupled, malachite green Pi release)
Experimental: (§1) […] The cells were disrupted using a constant cell disruption system (Constant Systems) under 20 kPsi.
(§2) Pi release was determined with a malachite green colorimetric assay.^45 Where indicated, TNP (Cayman Chemical) was added to the assays (FIG. 2A-E).

IP6K2 = IP6K2 (Homo sapiens (Human), UniProt Q9UHH9); test: Enzyme-coupled assay of IP6K2 activity (Dipp1-coupled, malachite green Pi release)
Sequence of IP6K2 (Q9UHH9 whole entry): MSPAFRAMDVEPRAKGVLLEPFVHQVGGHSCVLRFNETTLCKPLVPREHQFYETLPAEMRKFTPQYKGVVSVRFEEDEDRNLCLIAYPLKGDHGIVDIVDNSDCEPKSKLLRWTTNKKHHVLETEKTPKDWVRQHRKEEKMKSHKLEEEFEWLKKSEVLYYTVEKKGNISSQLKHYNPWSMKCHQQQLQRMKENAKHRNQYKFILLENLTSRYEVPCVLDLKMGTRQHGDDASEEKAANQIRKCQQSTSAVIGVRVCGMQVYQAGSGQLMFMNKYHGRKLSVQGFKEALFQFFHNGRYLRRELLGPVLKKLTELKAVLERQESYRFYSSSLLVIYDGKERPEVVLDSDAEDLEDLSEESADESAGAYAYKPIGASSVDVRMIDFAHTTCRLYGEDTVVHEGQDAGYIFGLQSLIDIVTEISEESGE
Experimental: as §1, §2

IPMK = IPMK (Homo sapiens (Human), UniProt Q8NFU5); test: Enzyme-coupled assay, IPMK IC50
Sequence of IPMK (Q8NFU5 whole entry, species assumed): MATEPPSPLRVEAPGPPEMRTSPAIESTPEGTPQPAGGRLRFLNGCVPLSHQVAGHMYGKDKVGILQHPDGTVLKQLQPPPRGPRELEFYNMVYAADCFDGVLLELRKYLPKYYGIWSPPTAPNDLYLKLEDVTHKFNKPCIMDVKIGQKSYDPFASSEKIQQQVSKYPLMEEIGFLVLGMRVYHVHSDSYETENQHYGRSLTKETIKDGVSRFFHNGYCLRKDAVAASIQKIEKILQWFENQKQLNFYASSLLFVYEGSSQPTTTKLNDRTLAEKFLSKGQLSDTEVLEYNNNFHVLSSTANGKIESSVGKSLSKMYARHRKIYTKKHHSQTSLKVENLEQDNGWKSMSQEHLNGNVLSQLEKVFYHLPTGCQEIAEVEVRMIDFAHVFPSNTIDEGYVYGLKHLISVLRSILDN

IP6K3 = IP6K3 (Homo sapiens (Human), UniProt Q96PC2); test: Enzyme-coupled assay of IP6K3 activity (Dipp1-coupled, malachite green Pi release)
Sequence of IP6K3 (Q96PC2 whole entry): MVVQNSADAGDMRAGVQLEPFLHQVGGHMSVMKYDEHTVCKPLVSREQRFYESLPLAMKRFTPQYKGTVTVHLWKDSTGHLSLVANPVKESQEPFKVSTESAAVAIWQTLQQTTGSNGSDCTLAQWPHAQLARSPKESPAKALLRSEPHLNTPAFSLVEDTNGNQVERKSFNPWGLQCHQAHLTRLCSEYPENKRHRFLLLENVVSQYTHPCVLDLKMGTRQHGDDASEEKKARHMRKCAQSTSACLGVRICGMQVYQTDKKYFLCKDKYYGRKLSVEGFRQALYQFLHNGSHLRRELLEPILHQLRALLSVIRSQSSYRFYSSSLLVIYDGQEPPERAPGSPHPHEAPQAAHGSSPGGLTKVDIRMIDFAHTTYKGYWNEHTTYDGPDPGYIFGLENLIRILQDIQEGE

[1] = determined from enzyme-coupled assays

Sequence of IP6K1 (Q92551 whole entry): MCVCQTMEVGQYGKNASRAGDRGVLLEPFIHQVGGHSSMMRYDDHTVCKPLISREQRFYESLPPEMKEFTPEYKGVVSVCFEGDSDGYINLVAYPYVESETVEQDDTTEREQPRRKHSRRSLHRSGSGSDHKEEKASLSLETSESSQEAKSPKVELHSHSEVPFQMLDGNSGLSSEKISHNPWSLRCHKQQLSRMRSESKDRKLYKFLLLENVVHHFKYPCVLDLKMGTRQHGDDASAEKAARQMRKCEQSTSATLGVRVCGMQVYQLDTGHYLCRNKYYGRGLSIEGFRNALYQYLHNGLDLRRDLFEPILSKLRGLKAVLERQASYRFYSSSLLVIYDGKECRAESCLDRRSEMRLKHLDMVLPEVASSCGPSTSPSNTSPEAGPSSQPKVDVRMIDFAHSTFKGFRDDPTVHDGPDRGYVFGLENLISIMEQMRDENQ

Row | Compound | IC50 (IP6K1; enzyme-coupled assay, Table 4) | IC50 (IP6K2; enzyme-coupled assay, Table 4) | IC50 (IPMK; enzyme-coupled assay, Table 4) | IC50 (IP6K3; enzyme-coupled assay, Table 4) | IC50 (IP6K3; enzyme-coupled assay, Table 2) | also measured
1 | c1cc(OCCN2CCOCC2)cc(-c2onc3ccc(-c4nnn[nH]4)cc23)c1 [Compound 83] | 10 to 100 nM | 100 to 1000 nM | 10 to 100 nM | 100 to 1000 nM |  | 
2 | Clc1cnc(Oc2cccc(-c3onc4ccc(-c5nnn[nH]5)cc34)c2)c(Cl)c1 [Compound 80] | 10 to 100 nM | 10 to 100 nM | 10 to 100 nM | 10 to 100 nM |  | 
3 | CNC(=O)c1ccc2noc(-c3ccc(-c4ccccc4)cc3)c2c1 [Compound 26] |  |  |  |  | 100 to 1000 nM | IC50 (IP6K1; enzyme-coupled assay, Table 2): 10 to 100 nM; IC50 (IP6K2; enzyme-coupled assay, Table 2): 100 to 1000 nM; IC50 (IPMK; enzyme-coupled assay, Table 2): 10 to 100 nM
4 | c1ccc(Oc2ccc(-c3onc4ccc(-c5nnn[nH]5)cc34)cc2)cc1 [Compound 70] | 1000 to 100000 nM | 100 to 1000 nM | < 10 nM | 100 to 1000 nM |  | 
6 | Clc1ccc(-c2onc3ccc(-c4nnn[nH]4)cc23)cc1Cl [Compound 67] | 10 to 100 nM | 100 to 1000 nM | 10 to 100 nM | 100 to 1000 nM |  | 
7 | CN(C)C(=O)/C=C/c1ccc2noc(-c3ccccc3)c2c1 [Compound 9] |  |  |  |  |  | IP6K3 IC50 (IP6K3; enzyme-coupled assay, Table 1): −
8 | O=C(O)/C=C/c1ccc2noc(-c3ccccc3)c2c1 [Compound 10] |  |  |  |  |  | IC50 (IP6K1; enzyme-coupled assay, Table 1): 100 to 1000 nM; IC50 (IP6K3; enzyme-coupled assay, Table 1): 1000 to 100000 nM
9 | CN(C)CCOc1cccc(-c2onc3ccc(-c4nnn[nH]4)cc23)c1 [Compound 78] | 100 to 1000 nM | 100 to 1000 nM | < 10 nM | 100 to 1000 nM |  | 
10 | CC(C)NC(=O)c1ccc2noc(-c3ccccc3)c2c1 [Compound 22] |  |  |  |  | 1000 to 100000 nM | IC50 (IP6K1; enzyme-coupled assay, Table 2): 1000 to 100000 nM; IC50 (IP6K2; enzyme-coupled assay, Table 2): 100 to 1000 nM; IPMK IC50 (IPMK; enzyme-coupled assay, Table 2): −
11 | c1ccc(-c2onc3ccc(-c4nc[nH]n4)cc23)cc1 [Compound 60] | 1000 to 100000 nM | 100 to 1000 nM | 10 to 100 nM | 1000 to 100000 nM |  | 
12 | O=c1[nH]c(-c2ccc3noc(-c4ccccc4)c3c2)no1 [Cmpd 124] |  |  |  |  |  | IC50 (IP6K1; [1]): 100 to 1000 nM; IC50 (IP6K2; [1]): 100 to 1000 nM; IC50 (IPMK; [1]): 10 to 100 nM; IC50 (IP6K3; [1]): 100 to 1000 nM
13 | Clc1ccccc1-c1onc2ccc(-c3nnn[nH]3)cc12 [Compound 76] | 10 to 100 nM | 10 to 100 nM | < 10 nM | 100 to 1000 nM |  | 
14 | O=C(O)/C=C/c1ccc2noc(-c3ccc(Oc4ccccc4)cc3)c2c1 [Compound 15] |  |  |  |  |  | IC50 (IP6K3; enzyme-coupled assay, Table 1): 100 to 1000 nM
15 | O=C(O)c1ccc2noc(-c3ccc(N4CCCCC4)cc3)c2c1 [Compound 55] |  |  |  |  |  | IPMK IC50 (IPMK; enzyme-coupled assay, Table 3): −; IC50 (IP6K3; enzyme-coupled assay, Table 3): 1000 to 100000 nM
16 | c1ccc(-c2ccc(-c3onc4ccc(-c5nnn[nH]5)cc34)cc2)cc1 [Compound 68] | 10 to 100 nM | 10 to 100 nM |  | 100 to 1000 nM |  | 
17 | CC(C)(C)OC(=O)N1CCC(Oc2cccc(-c3onc4ccc(-c5noc(=O)[nH]5)cc34)c2)CC1 [Cmpd 128] |  |  |  |  |  | IC50 (IP6K1; [1]): 10 to 100 nM; IC50 (IP6K2; [1]): 10 to 100 nM; IC50 (IPMK; [1]): 10 to 100 nM
18 | O=C(O)/C=C/c1ccc2noc(-c3ccc(-c4ccccc4)cc3)c2c1 [Compound 16] |  |  |  |  |  | IC50 (IP6K3; enzyme-coupled assay, Table 1): 100 to 1000 nM
19 | CC(C)C(=O)N1CCC(Oc2cccc(-c3onc4ccc(-c5nnn[nH]5)cc34)c2)CC1 [Compound 90] | 10 to 100 nM | 10 to 100 nM | < 10 nM |  |  | 

The next lines start with results.

Row | IC50 (IP6K1; enzyme-coupled assay, Table 4) | IC50 (IP6K2; enzyme-coupled assay, Table 4) | IC50 (IPMK; enzyme-coupled assay, Table 4) | IC50 (IP6K3; enzyme-coupled assay, Table 4) | IC50 (IP6K3; enzyme-coupled assay, Table 2) | Compound | also measured
20 | 100 to 1000 nM | 100 to 1000 nM | < 10 nM | 100 to 1000 nM |  | CC(C)C(=O)Nc1cccc(-c2onc3ccc(-c4nnn[nH]4)cc23)c1 [Compound 75] | 
21 |  |  |  |  | 1000 to 100000 nM | O=C(O)c1ccc2noc(-c3cccc(Oc4ncc(Cl)cc4Cl)c3)c2c1 [Compound 30] | IC50 (IPMK; enzyme-coupled assay, Table 2): 10 to 100 nM
22 |  |  |  |  | 1000 to 100000 nM | O=C(CC1CCOCC1)Nc1ccc(-c2onc3ccc(C(=O)O)cc23)cc1 [Compound 37] | IC50 (IP6K1; enzyme-coupled assay, Table 2): 1000 to 100000 nM; IC50 (IP6K2; enzyme-coupled assay, Table 2): 1000 to 100000 nM; IC50 (IPMK; enzyme-coupled assay, Table 2): 1000 to 100000 nM
23 | 10 to 100 nM | 100 to 1000 nM | < 10 nM | < 10 nM |  | O=C(Nc1ccc(-c2onc3ccc(-c4nnn[nH]4)cc23)cc1)C1CC1 [Compound 71] | 
24 | 10 to 100 nM | 10 to 100 nM | < 10 nM | 10 to 100 nM |  | O=C(Nc1cccc(-c2onc3ccc(-c4nnn[nH]4)cc23)c1)C1CCCC1 [Compound 73] | 
25 |  |  |  |  | 1000 to 100000 nM | O=C(O)c1ccc2noc(-c3cccc(Oc4ccccn4)c3)c2c1 [Compound 29] | IC50 (IPMK; enzyme-coupled assay, Table 2): 1000 to 100000 nM
26 |  |  |  |  | 100 to 1000 nM | CC(C)C(=O)Nc1ccc(-c2onc3ccc(C(=O)O)cc23)cc1 [Compound 36] | IC50 (IP6K2; enzyme-coupled assay, Table 2): 100 to 1000 nM; IC50 (IPMK; enzyme-coupled assay, Table 2): 1000 to 100000 nM
27 |  |  |  |  | 100 to 1000 nM | O=C(O)c1ccc2noc(-c3cccc(Oc4ccccc4)c3)c2c1 [Compound 33] | IC50 (IPMK; enzyme-coupled assay, Table 2): 10 to 100 nM
28 |  |  |  |  | 100 to 1000 nM | O=C(O)c1ccc2noc(-c3ccc(NC(=O)c4ccncn4)cc3)c2c1 [Compound 47] | IPMK IC50 (IPMK; enzyme-coupled assay, Table 2): −
29 |  |  |  |  | 1000 to 100000 nM | O=C(O)c1ccc2noc(-c3cccc(NC(=O)C4CC4)c3)c2c1 [Compound 42] | IC50 (IPMK; enzyme-coupled assay, Table 2): 10 to 100 nM
